Experimental data taken from PubChem BioAssay AID2060506 (Molecular Pharmacology Branch, DTP, NCI, 2025).

System: 598228-144-R-J1-PDC complex spheroid viability
Assay: Anticancer human tumor 598228-144-R-J1-PDC patient-derived serous endometrial adenocarcinoma cell line growth inhibition [GQUAD]
Settings: for IC50: curve of first compound; for viability, T/C: stronger effect = lower value
Outline: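 Multi-cell-type spheroids of tumor cells with HUVEC and mesenchymal stem cells, treated with drug combinations. Concentrations descend in half-log steps from near clinical Cmax, or from 10 microM where Cmax is unknown; viability read-out.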

[1] = second compound 0.0316 µM, first compound 0.0316 µM
[2] = second compound 0.0316 µM, first compound 0.316 µM
[3] = second compound 0.1 µM, first compound 0.0316 µM
[4] = second compound 0.1 µM, first compound 0.316 µM
[5] = second compound 0.316 µM, first compound 0.0316 µM
[6] = second compound 0.316 µM, first compound 0.316 µM
[7] = second compound 1 µM, first compound 0.0316 µM
[8] = second compound 1 µM, first compound 0.316 µM
[9] = second compound 3.16 µM, first compound 0.0316 µM
[10] = second compound 3.16 µM, first compound 0.316 µM
[11] = second compound 10 µM, first compound 0.0316 µM
[12] = second compound 10 µM, first compound 0.316 µM
[13] = second compound 0.0316 µM, first compound 0.1 µM
[14] = second compound 0.0316 µM, first compound 1 µM
[15] = second compound 0.0316 µM, first compound 3.16 µM
[16] = second compound 0.0316 µM, first compound 10 µM
[17] = second compound 0.1 µM, first compound 0.1 µM
[18] = second compound 0.1 µM, first compound 1 µM
[19] = second compound 0.1 µM, first compound 3.16 µM
[20] = second compound 0.1 µM, first compound 10 µM
[21] = second compound 0.316 µM, first compound 0.1 µM
[22] = second compound 0.316 µM, first compound 1 µM
[23] = second compound 0.316 µM, first compound 3.16 µM
[24] = second compound 0.316 µM, first compound 10 µM
[25] = second compound 1 µM, first compound 0.1 µM
[26] = second compound 1 µM, first compound 1 µM
[27] = second compound 1 µM, first compound 3.16 µM
[28] = second compound 1 µM, first compound 10 µM
[29] = second compound 3.16 µM, first compound 0.1 µM
[30] = second compound 3.16 µM, first compound 1 µM
[31] = second compound 3.16 µM, first compound 3.16 µM
[32] = second compound 3.16 µM, first compound 10 µM
[33] = second compound 10 µM, first compound 0.1 µM
[34] = second compound 10 µM, first compound 1 µM
[35] = second compound 10 µM, first compound 3.16 µM
[36] = second compound 10 µM, first compound 10 µM
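Note: spheroids exposed to the agents for one week before reading.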
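Throughout, for viability, T/C: percent of vehicle DMSO control viability so 100% = untreated growth.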

Structure (SMILES): CCc1c2c(nc3ccc(O)cc13)-c1cc3c(c(=O)n1C2)COC(=O)[C@]3(O)CC + Cc1cnc(CNC(=O)c2c(=O)c3ccc(N4CCCN(C)CC4)nc3n3c2sc2ccccc23)cn1
- IC50 (second compound 0.0316 µM): 0.018 µM
- IC50 (second compound 0.1 µM): 0.0149 µM
- IC50 (second compound 0.316 µM): 0.0164 µM
- IC50 (second compound 1 µM): 0.0222 µM
- IC50 (second compound 3.16 µM): 0.0128 µM
- IC50 (second compound 10 µM): < 0.000999 µM
- viability, T/C (second compound 0.0316 µM, first compound 0.000999 µM): 62.5%
- viability, T/C (second compound 0.0316 µM, first compound 0.00316 µM): 68%
- viability, T/C (second compound 0.0316 µM, first compound 0.00999 µM): 55.6%
- viability, T/C [1]: 42.6%
- viability, T/C (second compound 0.0316 µM, first compound 0.0999 µM): 27.3%
- viability, T/C [2]: 15.3%
- viability, T/C (second compound 0.1 µM, first compound 0.000999 µM): 58.7%
- viability, T/C (second compound 0.1 µM, first compound 0.00316 µM): 56.1%
- viability, T/C (second compound 0.1 µM, first compound 0.00999 µM): 60.4%
- viability, T/C [3]: 34.1%
- viability, T/C (second compound 0.1 µM, first compound 0.0999 µM): 22.6%
- viability, T/C [4]: 15%
- viability, T/C (second compound 0.316 µM, first compound 0.000999 µM): 69.3%
- viability, T/C (second compound 0.316 µM, first compound 0.00316 µM): 76.8%
- viability, T/C (second compound 0.316 µM, first compound 0.00999 µM): 45.4%
- viability, T/C [5]: 47.3%
- viability, T/C (second compound 0.316 µM, first compound 0.0999 µM): 21.5%
- viability, T/C [6]: 2.76%
- viability, T/C (second compound 1 µM, first compound 0.000999 µM): 68.5%
- viability, T/C (second compound 1 µM, first compound 0.00316 µM): 63.5%
- viability, T/C (second compound 1 µM, first compound 0.00999 µM): 64.2%
- viability, T/C [7]: 43.3%
- viability, T/C (second compound 1 µM, first compound 0.0999 µM): 19.6%
- viability, T/C [8]: 0.43%
- viability, T/C (second compound 3.16 µM, first compound 0.000999 µM): 70.3%
- viability, T/C (second compound 3.16 µM, first compound 0.00316 µM): 63%
- viability, T/C (second compound 3.16 µM, first compound 0.00999 µM): 55.8%
- viability, T/C [9]: 27.9%
- viability, T/C (second compound 3.16 µM, first compound 0.0999 µM): 0.43%
- viability, T/C [10]: 0.31%
- viability, T/C (second compound 10 µM, first compound 0.000999 µM): 54%
- viability, T/C (second compound 10 µM, first compound 0.00316 µM): 39.5%
- viability, T/C (second compound 10 µM, first compound 0.00999 µM): 44%
- viability, T/C [11]: 1.02%
- viability, T/C (second compound 10 µM, first compound 0.0999 µM): 0.4%
- viability, T/C [12]: 0.35%

Structure (SMILES): Cc1cccc(N(C)C(=O)C2C(O)CCN2c2nc(C)cc(C(F)(F)F)c2C#N)c1 (stereo not drawn) + Cc1cnc(CNC(=O)c2c(=O)c3ccc(N4CCCN(C)CC4)nc3n3c2sc2ccccc23)cn1
- IC50 (second compound 0.0316 µM): > 10 µM
- IC50 (second compound 0.1 µM): > 10 µM
- IC50 (second compound 0.316 µM): > 10 µM
- IC50 (second compound 1 µM): > 10 µM
- IC50 (second compound 3.16 µM): > 10 µM
- IC50 (second compound 10 µM): < 0.0316 µM
- viability, T/C [1]: 92.7%
- viability, T/C [13]: 83.7%
- viability, T/C [2]: 91%
- viability, T/C [14]: 99%
- viability, T/C [15]: 112%
- viability, T/C [16]: 91.4%
- viability, T/C [3]: 76.8%
- viability, T/C [17]: 69.3%
- viability, T/C [4]: 64.4%
- viability, T/C [18]: 67.9%
- viability, T/C [19]: 86.6%
- viability, T/C [20]: 66.5%
- viability, T/C [5]: 63.2%
- viability, T/C [21]: 66.6%
- viability, T/C [6]: 70.3%
- viability, T/C [22]: 63.6%
- viability, T/C [23]: 61.3%
- viability, T/C [24]: 60.2%
- viability, T/C [7]: 68.9%
- viability, T/C [25]: 62.5%
- viability, T/C [8]: 58.7%
- viability, T/C [26]: 61.9%
- viability, T/C [27]: 58.3%
- viability, T/C [28]: 60.5%
- viability, T/C [9]: 52.4%
- viability, T/C [29]: 58.3%
- viability, T/C [10]: 57.9%
- viability, T/C [30]: 44.3%
- viability, T/C [31]: 58.7%
- viability, T/C [32]: 50.5%
- viability, T/C [11]: 55.8%
- viability, T/C [33]: 45.7%
- viability, T/C [12]: 37.8%
- viability, T/C [34]: 46%
- viability, T/C [35]: 66.1%
- viability, T/C [36]: 36.2%

Structure (SMILES): O=c1[nH]cc(F)c(=O)[nH]1 + Cc1cnc(CNC(=O)c2c(=O)c3ccc(N4CCCN(C)CC4)nc3n3c2sc2ccccc23)cn1
- IC50 (second compound 0.0316 µM): > 10 µM
- IC50 (second compound 0.1 µM): > 10 µM
- IC50 (second compound 0.316 µM): > 10 µM
- IC50 (second compound 1 µM): > 10 µM
- IC50 (second compound 3.16 µM): > 10 µM
- IC50 (second compound 10 µM): < 0.0316 µM
- viability, T/C [1]: 101%
- viability, T/C [13]: 98.9%
- viability, T/C [2]: 85.3%
- viability, T/C [14]: 85.7%
- viability, T/C [15]: 89%
- viability, T/C [16]: 76%
- viability, T/C [3]: 69.2%
- viability, T/C [17]: 80.3%
- viability, T/C [4]: 69.9%
- viability, T/C [18]: 65.1%
- viability, T/C [19]: 97.9%
- viability, T/C [20]: 64.1%
- viability, T/C [5]: 69.7%
- viability, T/C [21]: 77.8%
- viability, T/C [6]: 72.4%
- viability, T/C [22]: 66.3%
- viability, T/C [23]: 65.1%
- viability, T/C [24]: 55.5%
- viability, T/C [7]: 61.2%
- viability, T/C [25]: 54.3%
- viability, T/C [8]: 63.5%
- viability, T/C [26]: 68.4%
- viability, T/C [27]: 73.8%
- viability, T/C [28]: 60.3%
- viability, T/C [9]: 56.1%
- viability, T/C [29]: 59.2%
- viability, T/C [10]: 56%
- viability, T/C [30]: 46.1%
- viability, T/C [31]: 67.9%
- viability, T/C [32]: 52.2%
- viability, T/C [11]: 44.5%
- viability, T/C [33]: 49.6%
- viability, T/C [12]: 48.3%
- viability, T/C [34]: 53.1%
- viability, T/C [35]: 59.8%
- viability, T/C [36]: 51.9%

Structure (SMILES): O=C(c1cc(Cc2n[nH]c(=O)c3ccccc23)ccc1F)N1CCN(C(=O)C2CC2)CC1 + CN(C)c1ccc(Nc2c3ccc(NC(=O)CCN4CCCC4)cc3nc3cc(NC(=O)CCN4CCCC4)ccc23)cc1
- IC50 (second compound 0.0316 µM): > 10 µM
- IC50 (second compound 0.1 µM): > 10 µM
- IC50 (second compound 0.316 µM): > 10 µM
- IC50 (second compound 1 µM): > 10 µM
- IC50 (second compound 3.16 µM): > 10 µM
- IC50 (second compound 10 µM): > 10 µM
- viability, T/C [1]: 84.9%
- viability, T/C [13]: 92.6%
- viability, T/C [2]: 79.7%
- viability, T/C [14]: 92.9%
- viability, T/C [15]: 95%
- viability, T/C [16]: 75.8%
- viability, T/C [3]: 110%
- viability, T/C [17]: 101%
- viability, T/C [4]: 91%
- viability, T/C [18]: 84.4%
- viability, T/C [19]: 87.2%
- viability, T/C [20]: 75.1%
- viability, T/C [5]: 98%
- viability, T/C [21]: 85.3%
- viability, T/C [6]: 96.6%
- viability, T/C [22]: 91.1%
- viability, T/C [23]: 93.9%
- viability, T/C [24]: 65.9%
- viability, T/C [7]: 82.5%
- viability, T/C [25]: 93.9%
- viability, T/C [8]: 103%
- viability, T/C [26]: 87.5%
- viability, T/C [27]: 87.4%
- viability, T/C [28]: 54.1%
- viability, T/C [9]: 98.8%
- viability, T/C [29]: 91.8%
- viability, T/C [10]: 92.8%
- viability, T/C [30]: 88.3%
- viability, T/C [31]: 92.9%
- viability, T/C [32]: 68.3%
- viability, T/C [11]: 76.4%
- viability, T/C [33]: 89.3%
- viability, T/C [12]: 91.9%
- viability, T/C [34]: 73.8%
- viability, T/C [35]: 89.7%
- viability, T/C [36]: 50.3%
